{"source": "patent US6949564B2", "about": "“NPY-5 antagonists” (Pfizer Inc., priority 2002, dated 2005)", "tested_on": "endogenous NPY response (Y1) of human Bowes melanoma cells (HMCB)", "test": "Block of endogenous NPY response in host human Bowes melanoma cells", "details": "at 10 uM; host Bowes melanoma cells with low levels of Y1 responses", "data": [{"smiles": "NC(N)=NCCC[C@@H](NC(=O)C(c1ccccc1)c1ccccc1)C(=O)NCc1ccc(O)cc1", "note": "[BIBP3226]", "values": [{"measurement": "block of the endogenous NPY response", "value": "completely blocks"}]}]}
